Measured values reported in ChEMBL document CHEMBL1125699, “Development of a novel series of (2-quinolinylmethoxy)phenyl-containing compounds as high-affinity leukotriene D4 receptor antagonists. 4. Addition of chromone moiety enhances leukotriene D4 receptor binding affinity” (J Med Chem, 1991).
pKi: −log10 of the molar value.

target: T1, Cysteinyl leukotriene receptor 1 (Cavia porcellus) (UniProt Q2NNR5); assay: Radioligand binding affinity against LTD4 receptor in guinea pig lung membranes at the concentration of 30 nM.; format: cell membranes; details: Membrane
T1 sequence (whole entry): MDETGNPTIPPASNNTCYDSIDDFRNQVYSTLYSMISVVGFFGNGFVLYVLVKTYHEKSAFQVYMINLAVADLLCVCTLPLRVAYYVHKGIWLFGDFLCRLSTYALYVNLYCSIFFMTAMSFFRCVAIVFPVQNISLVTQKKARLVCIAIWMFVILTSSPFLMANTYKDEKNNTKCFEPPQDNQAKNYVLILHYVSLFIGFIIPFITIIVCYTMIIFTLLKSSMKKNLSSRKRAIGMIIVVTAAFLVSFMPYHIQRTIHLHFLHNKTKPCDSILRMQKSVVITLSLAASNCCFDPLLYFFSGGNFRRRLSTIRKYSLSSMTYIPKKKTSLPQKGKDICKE

| inhibition [%] | Structure (SMILES) |
| --- | --- |
| 22 | CCCc1c(OCc2cccc(OCc3ccc4ccccc4n3)c2)ccc2c1OC(C(=O)O)CC2=O (stereo not given) |

target: T2, Cysteinyl leukotriene receptor 1 (Cavia porcellus, UniProt Q2NNR5); assay: Binding affinity against LTD4 receptor in guinea pig lung membranes.; format: cell membranes; details: not given
T2 sequence (Q2NNR5 whole entry): T1 sequence (whole entry)

| Structure (SMILES) | pKi |
| --- | --- |
| O=C1CC(C(=O)O)Oc2ccc(Cl)c(OCc3ccc(OCc4ccc5ccccc5n4)cc3)c21 (stereo not given) | 7.74 |
| CCOC(=O)C1CC(=O)c2ccc(COc3cccc(OCc4ccc5ccccc5n4)c3)cc2O1 (stereo not given) | 7.52 |
| O=C(O)c1cc(=O)c2ccc(OCc3ccc4ccccc4n3)cc2o1 | 5.15 |
| O=C1CC(C(=O)O)Oc2cc(COc3ccc(OCc4ccc5ccccc5n4)cc3)ccc21 (stereo not given) | 8.20 |
| O=C1CC(c2nnn[nH]2)Oc2c(COc3ccc(OCc4ccc5ccccc5n4)cc3)cccc21 (stereo not given) | 7.82 |
| O=C1CC(C(=O)O)Oc2c(COc3ccc(OCc4ccc5ccccc5n4)cc3)cccc21 (stereo not given) | 7.89 |

Now from value to molecule:

| pKi | Structure (SMILES) |
| --- | --- |
| 8.60 | O=C1CC(c2nnn[nH]2)Oc2cc(/C=C/c3cccc(OCc4ccc5ccccc5n4)c3)ccc21 (stereo not given) |
| 8.68 | O=C1CC(C(=O)O)Oc2cc(OCc3cccc(OCc4ccc5ccccc5n4)c3)ccc21 (stereo not given) |
| 8.89 | O=C1CC(C(=O)O)Oc2ccc(OCc3cccc(OCc4ccc5ccccc5n4)c3)cc21 (stereo not given) |
| 8.92 | CC1(CCC(=O)O)CC(=O)c2ccc(OCc3cccc(OCc4ccc5ccccc5n4)c3)cc2O1 (stereo not given) |
| 8.96 | O=C(Nc1cccc2c1OC(c1nnn[nH]1)CC2=O)c1ccc(OCc2ccc3ccccc3n2)cc1 (stereo not given) |
| 9.52 | O=C1CC(c2nnn[nH]2)Oc2cc(CCc3cccc(OCc4ccc5ccccc5n4)c3)ccc21 (stereo not given) |
| 9.92 | O=C1CC(c2nnn[nH]2)Oc2cc(COc3cccc(OCc4ccc5ccccc5n4)c3)ccc21 (stereo not given) |
| 10.00 | O=C1CC(c2nnn[nH]2)Oc2cc(OCc3cccc(OCc4ccc5ccccc5n4)c3)ccc21 (stereo not given) |
